According to ChEMBL document CHEMBL1145783, “Development of an orexin-2 receptor selective agonist, [Ala(11), D-Leu(15)]orexin-B” (Bioorg Med Chem Lett, 2003):

Target: T1, Orexin receptor type 2 (Homo sapiens, UniProt O43614)
T1 sequence (O43614 whole entry): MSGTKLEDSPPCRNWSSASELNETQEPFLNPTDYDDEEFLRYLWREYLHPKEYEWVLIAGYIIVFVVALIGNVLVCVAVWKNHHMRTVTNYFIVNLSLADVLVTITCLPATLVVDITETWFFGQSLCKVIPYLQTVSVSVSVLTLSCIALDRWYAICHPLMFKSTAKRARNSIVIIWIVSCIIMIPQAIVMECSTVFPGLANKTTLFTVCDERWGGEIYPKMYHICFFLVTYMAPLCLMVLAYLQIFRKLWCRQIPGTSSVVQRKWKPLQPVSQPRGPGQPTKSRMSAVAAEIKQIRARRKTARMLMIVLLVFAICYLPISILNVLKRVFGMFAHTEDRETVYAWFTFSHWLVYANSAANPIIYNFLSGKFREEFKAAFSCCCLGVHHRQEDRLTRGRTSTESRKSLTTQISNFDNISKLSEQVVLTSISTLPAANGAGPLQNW
Test: Agonist activity against human orexin 2 receptor; EC50; nM
Type: functional

| Compound | EC50 [nM] |
| --- | --- |
| H-MTLIGAAHNGSAQLLRQLAGQLGPPGSR-NH2 | 0.77 |
| CC[C@H](C)[C@H](NC(=O)[C@@H](CC(C)C)NC(=O)[C@@H](NC(=O)[C@@H](N)CCSC)[C@@H](C)O)C(=O)NCC(=O)N[C@@H](C)C(=O)N[C@@H](C)C(=O)N[C@@H](Cc1cnc[nH]1)C(=O)N[C@@H](CC(N)=O)C(=O)NCC(=O)N[C@@H](CO)C(=O)N[C@@H](C)C(=O)N[C@@H](CCC(N)=O)C(=O)N[C@@H](CC(C)C)C(=O)N[C@@H](CC(C)C)C(=O)N[C@@H](CCCN=C(N)N)C(=O)N[C@@H](CCC(N)=O)C(=O)N[C@@H](CC(C)C)C(=O)N[C@@H](CCCN=C(N)N)C(=O)NCC(=O)N[C@@H](CCC(N)=O)C(=O)N[C@@H](CC(C)C)C(=O)NCC(=O)N1CCC[C@H]1C(=O)N1CCC[C@H]1C(=O)NCC(=O)N[C@@H](CO)C(=O)N[C@@H](CCCN=C(N)N)C(N)=O | > 200 |
| CC[C@H](C)[C@H](NC(=O)[C@H](CC(C)C)NC(=O)[C@@H](NC(=O)[C@@H](N)CCSC)[C@@H](C)O)C(=O)NCC(=O)N[C@@H](C)C(=O)N[C@@H](C)C(=O)N[C@@H](Cc1c[nH]cn1)C(=O)N[C@@H](CC(N)=O)C(=O)NCC(=O)N[C@@H](CO)C(=O)N[C@@H](C)C(=O)N[C@H](CCC(N)=O)C(=O)N[C@@H](CC(C)C)C(=O)N[C@@H](CC(C)C)C(=O)N[C@@H](CCCN=C(N)N)C(=O)N[C@@H](CCC(N)=O)C(=O)N[C@@H](CC(C)C)C(=O)N[C@@H](CCCN=C(N)N)C(=O)NCC(=O)N[C@@H](CCC(N)=O)C(=O)N[C@@H](CC(C)C)C(=O)NCC(=O)N1CCC[C@H]1C(=O)N1CCC[C@H]1C(=O)NCC(=O)N[C@@H](CO)C(=O)N[C@@H](CCCN=C(N)N)C(N)=O | 0.41 |
| CC[C@H](C)[C@H](NC(=O)[C@H](CC(C)C)NC(=O)[C@@H](NC(=O)[C@@H](N)CCSC)[C@@H](C)O)C(=O)N[C@@H](C)C(=O)N[C@@H](C)C(=O)N[C@@H](C)C(=O)N[C@@H](Cc1cnc[nH]1)C(=O)N[C@@H](CC(N)=O)C(=O)NCC(=O)N[C@@H](CO)C(=O)N[C@@H](C)C(=O)N[C@@H](CCC(N)=O)C(=O)N[C@@H](CC(C)C)C(=O)N[C@@H](CC(C)C)C(=O)N[C@@H](CCCN=C(N)N)C(=O)N[C@@H](CCC(N)=O)C(=O)N[C@@H](CC(C)C)C(=O)N[C@@H](CCCN=C(N)N)C(=O)NCC(=O)N[C@@H](CCC(N)=O)C(=O)N[C@@H](CC(C)C)C(=O)NCC(=O)N1CCC[C@H]1C(=O)N1CCC[C@H]1C(=O)NCC(=O)N[C@@H](CO)C(=O)N[C@@H](CCCN=C(N)N)C(N)=O | 290 |

Now those with a lower EC50, led by results:

| EC50 [nM] | Compound |
| --- | --- |
| 0.27 | H-MTLIGAGHNGSAQLLRQLRGQLGPPGSR-NH2 |
| 0.066 | CC[C@H](C)[C@H](NC(=O)[C@H](CC(C)C)NC(=O)[C@@H](NC(=O)[C@@H](N)CCSC)[C@@H](C)O)C(=O)NCC(=O)N[C@@H](C)C(=O)N[C@@H](C)C(=O)N[C@@H](Cc1cnc[nH]1)C(=O)N[C@@H](CC(N)=O)C(=O)NCC(=O)N[C@@H](CO)C(=O)N[C@@H](C)C(=O)N[C@@H](CCC(N)=O)C(=O)N[C@@H](CC(C)C)C(=O)N[C@@H](CC(C)C)C(=O)N[C@@H](CCCN=C(N)N)C(=O)N[C@@H](CCC(N)=O)C(=O)N[C@@H](C)C(=O)N[C@@H](CCCN=C(N)N)C(=O)NCC(=O)N[C@@H](CCC(N)=O)C(=O)N[C@@H](CC(C)C)C(=O)NCC(=O)N1CCC[C@H]1C(=O)N1CCC[C@H]1C(=O)NCC(=O)N[C@@H](CO)C(=O)N[C@@H](CCCN=C(N)N)C(N)=O |
| 0.12 | CC[C@H](C)[C@H](NC(=O)[C@H](CC(C)C)NC(=O)[C@@H](NC(=O)[C@@H](N)CCSC)[C@@H](C)O)C(=O)NCC(=O)N[C@@H](C)C(=O)N[C@@H](C)C(=O)N[C@@H](Cc1c[nH]cn1)C(=O)N[C@@H](CC(N)=O)C(=O)NCC(=O)N[C@@H](CO)C(=O)N[C@@H](C)C(=O)N[C@@H](CCC(N)=O)C(=O)N[C@@H](CC(C)C)C(=O)N[C@@H](CC(C)C)C(=O)N[C@@H](CCCN=C(N)N)C(=O)N[C@@H](CCC(N)=O)C(=O)N[C@@H](CC(C)C)C(=O)N[C@@H](CCCN=C(N)N)C(=O)NCC(=O)N[C@@H](CCC(N)=O)C(=O)N[C@@H](CC(C)C)C(=O)N[C@@H](C)C(=O)N1CCC[C@H]1C(=O)N1CCC[C@H]1C(=O)NCC(=O)N[C@@H](CO)C(=O)N[C@@H](CCCN=C(N)N)C(N)=O |
